{
  "source": "paper PMC6225253",
  "about": "“Chemical Constituents and Antidepressant-Like Effects in Ovariectomized Mice of the Ethanol Extract of Alternanthera philoxeroides” (Molecules : A Journal of Synthetic Chemistry and Natural …, 2018)",
  "assay_type_in_all_cases": "in vivo",
  "key": {"uterus of OVX mice": {"test_system": "uterus of OVX mice", "assay": "Uterine weight and volume of OVX mice", "experimental": "(§1) The levels of serum 17β-estradiol were evaluated (after decapitation) by electrochemiluminescence immunoassay. […] The weight and volume of the uterus were determined as an index of estrogen receptors activation.\n(§2) After a 3-day recovery period, the animals were divided into five groups: (1) sham, (2) ovariectomy (OVX), (3) ovariectomy + 1 μg/kg 17β-estradiol, (OVX + E2), (4) ovariectomy + 250 mg/kg of A. philoxeroides extract (OVX + AP250), and (5) ovariectomy + 500 mg/kg of A. philoxeroides extract (OVX + AP500). The sham and OVX control groups were orally administered distilled water 0.2 mL per mouse once daily for 8 weeks. 17β-Estradiol and A. philoxeroides extract were suspended in distilled water and orally administered 0.2 mL per mouse once daily for 8 weeks. To assess the effects of 17β-estradiol and A. philoxeroides extract in OVX mice, the drugs were administered 1 h before the behavioral tests. At the end of behavioral studies, the mice were anesthetized with pentobarbital sodium (Nembutal®) 60 mg/kg (i.p.). Thereafter, blood sera (1 mL) were collected by cardiac puncture and centrifuged (3000 rpm; 4 °C) for 15 min [53]. 17β-Estradiol and corticosterone levels were evaluated in the serum. Uteri were removed, trimmed of connective tissue and fat for measuring and weighing. Hippocampus and frontal cortex were collected for semi-quantitative reverse transcription-polymerase chain reaction (RT-PCR) assay. Both serum and all tissues were collected rapidly and kept at −80 °C for all experiments."}, "[1]": {"test_system": "HPA-axis (serum corticosterone)", "assay": "Serum corticosterone level of OVX mice (ELISA)", "settings": "extract 250 and 500 mg/kg/day, E2 1 µg/kg/day, p < 0.001 vs vehicle-treated OVX group", "experimental": "The serum corticosterone was evaluated to clarify the feedback mechanism in the HPA-axis on the estrogen deprivation in the OVX mice. […] Serum corticosterone level was determined by corticosterone (CORT) ELISA kit (Assaypro LLC. St. Charles, MO, USA) and corticosterone was used as a standard, according to the previously described procedure. The serum of the sample 25 µL was added in 96-well microplates of ELISA kit and immediately added 25 µL of biotinylated corticosterone to each well. The 96-well microplates were gently mixed and incubated for 2 h at room temperature and then washed with 200 µL of wash buffer for five times and added 50 µL of streptavidin-peroxidase conjugate into each well before incubation for 30 minutes. Each well was washed with 200 µL of wash buffer for five times again and then added 50 µL of chromogen substrate and incubated for 20 minutes. The reaction was stopped by adding 50 µL of stop solution. The absorbance was immediately measured at 450 nm."}, "[2]": {"test_system": "ovariectomized (OVX) mice", "assay": "Serum 17β-estradiol level of OVX mice (electrochemiluminescence immunoassay)", "settings": "OVX mice + E2 1 μg/kg/day, oral, 8 weeks; mean ± SEM, n = 3–4", "experimental": "as §1\nas §2, with “Uteri were removed, trimmed of connective tissue and fat for measuring and weighing.” left out, “Both serum and all tissues were collected rapidly and kept at −80 °C for all experiments.” left out"}, "[3]": {"test_system": "ovariectomized (OVX) mice", "assay": "Forced swimming test (FST) in ovariectomized mice", "settings": "oral once daily 8 weeks, E2 1 μg/kg/day, extract 250 and 500 mg/kg/day, vs vehicle-treated OVX group", "experimental": "(§3) The depressive-like symptoms of the OVX mice were evaluated using FST and TST (Figure 2A,B).\nas §2, with “Uteri were removed, trimmed of connective tissue and fat for measuring and weighing.” left out, “Both serum and all tissues were collected rapidly and kept at −80 °C for all experiments.” left out\nThe procedure was adapted from Vogel et al.. […] During a 6 min period, the total immobility time was recorded for the last 4 min."}, "CREB and BDNF mRNAs": {"test_system": "CREB and BDNF mRNAs", "assay": "CREB and BDNF mRNA expression in hippocampus and frontal cortex (semi-quantitative RT-PCR)", "settings": "hippocampus and frontal cortex of OVX mice; extract 250 and 500 mg/kg/day, E2 1 μg/kg/day", "source_text": "After completing the behavioral analysis, mice were decapitated under anesthesia. Mouse cyclic AMP response element binding protein (CREB), brain-derived neurotrophic factor (BDNF), and β-actin mRNAs expression in hippocampus and frontal cortex were semi-quantified by RT-PCR as described previously. Total RNA was extracted from the tissues with TRIzol® (Thermo Fisher Scientific Inc., CA, USA) according to the manufacturer’s instructions. First-strand cDNA was synthesized with oligo (dT) primers and SuperScript III reverse transcriptase (Thermo Fischer Scientific Inc., California, USA). PCR amplification was carried out using gene-specific PCR primer sets as follows: β-actin: 5′-AACGGTCTCACGTCAGTGTA-3′ (sense) and 5′-GTGACAGCATTGCTTCTGTG-3′ (antisense); BDNF: 5′-GACAAGGCAACTTGGCCTAC-3′ (sense) and 5′-CCTGTCACACACGCTCAGCTC-3′ (antisense); and CREB: 5′-GAGGCAGCTTGAACAACAAC-3′ (sense) and 5′-TACCCAGGGAGGAGCAATAC-3′ (antisense). […] The amplified products were visualized, photographed under ultraviolet and semi-quantified by GeneSnap software (GSL Biotech, Chicago, IL, USA) and ImageJ software (National Institutes of Health, Bethesda, MD, USA). The relative mRNA expression (BDNF/β-actin and CREB/β-actin) in each treatment were calculated by comparing with the sham group."}, "[4]": {"test_system": "ovariectomized (OVX) mice", "assay": "Tail suspension test (TST) in ovariectomized mice", "settings": "oral once daily 8 weeks, E2 1 μg/kg/day, extract 250 and 500 mg/kg/day, vs vehicle-treated OVX group", "experimental": "as §3\nas §2, with “Uteri were removed, trimmed of connective tissue and fat for measuring and weighing.” left out, “Both serum and all tissues were collected rapidly and kept at −80 °C for all experiments.” left out\nThe tail suspension test was used to assess the antidepressant effects of A. philoxeroides extract. […] The animal behavior was video-recorded for 6 min. […]"}, "[5]": {"settings": "OVX mice + E2 1 μg/kg/day, oral, 8 weeks, mean ± SEM"}},
  "data": [
    {"smiles": "C[C@]12CC[C@@H]3c4ccc(O)cc4CC[C@H]3[C@@H]1CC[C@@H]2O", "note": "[17β-estradiol]", "values": [
      {"measurement": "Uterine Volume", "setting": "uterus of OVX mice; [5]", "result": "2.305 ± 0.02 ** cm^3/kg"},
      {"measurement": "Uterine Weight", "setting": "uterus of OVX mice; [5]", "result": "3.055 ± 0.04", "unit": "g/kg"},
      {"measurement": "Effect on uterus weight and volume", "setting": "uterus of OVX mice; OVX mice, extract 250 and 500 mg/kg/day, E2 1 µg/kg/day, vs vehicle-treated OVX", "result": "statistically significant effects on uterus weight and volume"},
      {"measurement": "Serum corticosterone level (effect on HPA-axis)", "setting": "[1]", "result": "decreasing the serum corticosterone level"},
      {"measurement": "17β-estradiol (serum)", "setting": "[2]", "result": "24.81 ± 1.11", "unit": "pg/mL"},
      {"measurement": "Immobility time in FST", "setting": "[3]", "result": "significantly shorter immobility time"},
      {"measurement": "CREB and BDNF mRNA expression levels", "setting": "CREB and BDNF mRNAs", "result": "reversible by 17β-estradiol treatment"},
      {"measurement": "Immobility time in TST", "setting": "[4]", "result": "significantly shorter immobility time"}
    ]}
  ]
}
